Experiment in all cases: Cell-Titer GLO cell inhibition
Common to all, as to format: cell-based

Test [1] has as its system 293T (human renal epithelial cell line transfected with adenovirus E1A gene, expressing SV40 large T antigen). As to conditions: 293T. As to the method:
(§1) Experimental materials: fluorescence signal detection instrument: EnSpire Alpha 2390 multifunctional microplate reader (produced by Perkin Elmer Company); 384-well bottom permeable microwell plate; Cell-Titer GLO luminescent reagent; cancer cells to be tested; medium and fetal bovine serum required for cell culture.
(§2) […]. After incubation with the compound for 72 to 144 hours, Cell-Titer GLO reagent 25-T was added to each well, and the plate was shaken for 20 minutes to lyse the cells. After incubation for 10 minutes, the cells were centrifuged for 1 minute, the signal value of luminescence 384 was measured. The inhibition curve was fitted by GraphPad Prism software to obtain IC50.

The subject of test [2] is A549 (non-small cell lung cancer). As to the method: as §1, §2
The subject of test [3] is Cos7 (African green monkey kidney cells). The conditions noted are these: Cos7; read-out: IC50. The method, then: as §1, §2
Test [4] concerns H1975 (lung cancer cells). As to conditions: H1975. The method, then:
as §1, §2

A further test relates to HFL-1 (lung fibroblasts). As to conditions: HFL-1; ~ = estimate; read-out: IC50. As to the method:
as §1, §2

Another test relates to HT-29 (colon cancer). The conditions noted are these: read-out: IC50. The method, then: as §1, §2
In test [5] the test system is Hs578T (triple negative breast cancer). The conditions noted are these: Hs578T. The method, then:
as §1, §2

Test [6] relates to MCF-7 (ER + breast cancer). As to conditions: MCF-7. The method, then:
as §1, §2

The next test relates to MV-4-11 (acute leukemia). As to conditions: MV-4-11; read-out: IC50. As to the method: as §1, §2
The test system of another test is U2OS (osteosarcoma). As to the method:
as §1, §2

In test [7] the test system is VcaP (AR-positive prostate cancer). As to conditions: VcaP; 72 to 144 hours; read-out: IC50. The method, then: as §1, §2
Test [8] concerns C4-2B (AR-positive prostate cancer). As to conditions: 72 to 144 hours. From the text:
(§3) The inhibition curve was fitted by GraphPad Prism software to obtain IC50.

The subject of test [9] is Du145 (AR-negative prostate cancer). The conditions noted are these: Du145.
From the text: as §3

pIC50: −log10 of the molar value.

In general, pIC50 refers to the negative decadic logarithm of the IC50, by convention in mol/L. `OC(c1ccc(-c2ccc(CN3CCN(Cc4ccncc4)CC3)cc2)c(F)c1)(C(F)(F)F)C(F)(F)F` [SR2211, reference compound]: the “inhibition rate (value in brackets)” value in test [1] is reported as 67%; in [2] it was 55%; in test [4], 41%; in [5] it was roughly 50%; in test [6] it was 42%; in the test on U2OS (osteosarcoma), 52%. The “inhibition rate (value in brackets)” value in test [9] is recorded as roughly 50%. Further, the pIC50 in [1] (~ = estimate, read-out: IC50) is roughly 4.10; in test [2] (~ = estimate, read-out: IC50), roughly 5.00; in test [3], less than 4.00; in test [4] (read-out: IC50), 4.51; in the test with HFL-1 (lung fibroblasts), less than 4.30; in the test on HT-29 (colon cancer) it was less than 4.30. In addition, the pIC50 in [5] (~ = estimate, read-out: IC50) was roughly 5.00; in test [6] (~ = estimate, read-out: IC50), roughly 5.00; in the test with MV-4-11 (acute leukemia) it was 4.94; in the test with U2OS (osteosarcoma) (~ = estimate, read-out: IC50), roughly 5.00; in [7] it was 4.42; in test [8] it was 5.00. Further, the pIC50 in test [9] (72 to 144 hours, ~ = estimate, read-out: IC50) was roughly 5.00.
